This assay addresses T1, His-tagged full-length RSK2 (RPS6KA3) (Homo sapiens, UniProt P51812).
T1 construct: His-tagged full-length RSK2 (RPS6KA3, Invitrogen PV3323); His; purchased Invitrogen PV3323
The assay can be described thus: RSK2 Omnia Assay for compound IC50 determination. The assay is classed as biochemical. The note with it: ATP 15 μM, n=2, read-out: Mean RSK2 Biochem IC50. The method, boiled down:
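Initial-rate slopes from continuous kinetic reads were fitted to a four-parameter equation for IC50 (n=2). Ki was then derived by Cheng-Prusoff assuming ATP-competitive inhibition. Reactions contained 15 μM ATP (Km 16.3 μM), 5 μM Omnia ST Peptide 6, and […] in 50 mM HEPES pH 7.5, 10 mM MgCl2, 1 mM DTT, 1% DMSO. Compounds spanned 11 threefold steps, […] final.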

Here are results for 27 compounds from US9351974B2, “Substituted pteridinones for the treatment of cancer” (OSI Pharmaceuticals, LLC, priority 2011, dated 2016).

The structures appear in SMILES notation.

T1 sequence (P51812 whole entry): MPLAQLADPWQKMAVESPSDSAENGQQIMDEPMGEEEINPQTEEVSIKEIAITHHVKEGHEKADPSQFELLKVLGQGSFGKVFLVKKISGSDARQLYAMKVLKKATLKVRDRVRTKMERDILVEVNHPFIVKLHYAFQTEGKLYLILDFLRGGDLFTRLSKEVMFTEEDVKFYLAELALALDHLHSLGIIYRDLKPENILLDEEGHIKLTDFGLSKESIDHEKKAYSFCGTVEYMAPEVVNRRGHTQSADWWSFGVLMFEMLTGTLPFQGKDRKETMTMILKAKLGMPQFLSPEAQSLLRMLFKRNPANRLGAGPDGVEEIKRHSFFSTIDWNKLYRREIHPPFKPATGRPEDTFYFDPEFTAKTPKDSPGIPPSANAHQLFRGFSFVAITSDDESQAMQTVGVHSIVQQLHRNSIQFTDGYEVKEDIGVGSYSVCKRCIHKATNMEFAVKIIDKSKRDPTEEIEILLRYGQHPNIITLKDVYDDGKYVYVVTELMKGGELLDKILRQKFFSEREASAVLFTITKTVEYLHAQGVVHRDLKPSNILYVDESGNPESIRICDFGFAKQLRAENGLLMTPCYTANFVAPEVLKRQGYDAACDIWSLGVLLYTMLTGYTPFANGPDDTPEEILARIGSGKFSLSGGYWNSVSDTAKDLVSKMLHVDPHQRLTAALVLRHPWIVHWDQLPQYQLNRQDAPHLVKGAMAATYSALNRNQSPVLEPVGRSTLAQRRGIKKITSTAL

In the case of `C[C@@H]1C(=O)N(c2ccc(N3CCCCC3)nc2)c2cnc(Nc3cc(F)c4[nH]ncc4c3)nc2N1C1CCCCC1` [compound 142, (7R)-8-cyclohexyl-2-[(7-fluoro-1H-indazol-5-yl)amino]-7-methyl-5-[6-(piperidin-1-yl)pyridin-3-yl]-7,8-dihydropteridin-6(5H)-one], the 50% inhibitory concentration (IC50) is at most 100 nM.

In the case of `C[C@@H]1C(=O)N(c2cccc(C#N)c2)c2cnc(Nc3ccc4[nH]nc(F)c4c3)nc2N1C1CCCCC1` [compound 115, 3-[(7R)-8-cyclohexyl-2-[(3-fluoro-1H-indazol-5-yl)amino]-7-methyl-6-oxo-7,8-dihydropteridin-5(6H)-yl]benzonitrile], the IC50 is at most 100 nM.

Consider `CNC(=O)c1cccc(N2C(=O)[C@@H](C)N(C3CCCCC3)c3nc(Nc4ccc5[nH]ncc5c4)ncc32)c1` [Example 46, 3-[(7R)-8-cyclohexyl-2-(1H-indazol-5-ylamino)-7-methyl-6-oxo-7,8-dihydropteridin-5(6H)-yl]-N-methylbenzamide], for which the half-maximal inhibitory concentration (IC50) is at most 100 nM.

Take `COc1ccc(N2C(=O)[C@@H](C)N(C3CCC(F)(F)CC3)c3nc(Nc4cc(F)c5[nH]ncc5c4)ncc32)cc1OC` [compound 262, (7R)-8-(4,4-difluorocyclohexyl)-5-(3,4-dimethoxyphenyl)-2-[(7-fluoro-1H-indazol-5-yl)amino]-7-methyl-7,8-dihydropteridin-6(5H)-one]: the IC50 was at most 100 nM.

Regarding `COc1ccc(N2C(=O)[C@@H](C)N(C3CCCCC3)c3nc(Nc4cnc5[nH]ncc5c4)ncc32)cc1OC` [compound 153, (7R)-8-cyclohexyl-5-(3,4-dimethoxyphenyl)-7-methyl-2-(1H-pyrazolo[3,4-B]pyridin-5-ylamino)-7,8-dihydropteridin-6(5H)-one], the IC50 is at most 100 nM.

As for `C[C@@H]1C(=O)N(c2cccc(C#N)c2)c2cnc(Nc3ccc4[nH]ncc4c3)nc2N1C1CCC(C)(C)CC1` [Example 207, 3-[(7R)-8-(4,4-dimethylcyclohexyl)-2-(1H-indazol-5-ylamino)-7-methyl-6-oxo-7,8-dihydropteridin-5(6H)-yl]benzonitrile], the IC50 is at most 100 nM.

`C[C@@H]1C(=O)N(c2cccc(C#N)c2)c2cnc(Nc3cnc4[nH]c(=O)oc4c3)nc2N1C1CCCCC1` [compound 172, 3-[(7R)-8-cyclohexyl-7-methyl-6-oxo-2-[(2-oxo-2,3-dihydro[1,3]oxazolo[4,5-b]pyridin-6-yl)amino]-7,8-dihydropteridin-5(6H)-yl]benzonitrile]: the IC50 was at most 100 nM.

Regarding `COc1ccc(N2C(=O)[C@@H](C)N(C3CCC(F)(F)CC3)c3nc(Nc4cc(F)c5[nH]c(=O)oc5c4)ncc32)cc1C#N` [compound 281, 5-[(7R)-8-(4,4-difluorocyclohexyl)-2-[(4-fluoro-2-oxo-2,3-dihydro-1,3-benzoxazol-6-yl)amino]-7-methyl-6-oxo-7,8-dihydropteridin-5(6H)-yl]-2-methoxybenzonitrile], the IC50 was at most 100 nM.

Turning to `C[C@@H]1C(=O)N(c2ccccc2)c2cnc(Nc3ccc4[nH]ncc4c3)nc2N1CC1CCNCC1` [Example 78, (7R)-2-(1H-indazol-5-ylamino)-7-methyl-5-phenyl-8-(piperidin-4-ylmethyl)-7,8-dihydropteridin-6(5H)-one], the IC50 was over 1000 nM.

`C[C@@H]1C(=O)N(c2cccc(C#N)c2)c2cnc(Nc3ccc(C(=O)O)c(F)c3)nc2N1C1CCC(F)(F)CC1` [compound 271, 4-{[(7R)-5-(3-cyanophenyl)-8-(4,4-difluorocyclohexyl)-7-methyl-6-oxo-5,6,7,8-tetrahydropteridin-2-yl]amino}-2-fluorobenzoic acid]: the half-inhibitory concentration (IC50) is at most 100 nM.

`CC(C)Oc1ccc(N2C(=O)[C@@H](C)N(C3CCOCC3)c3nc(Nc4cc(F)c5[nH]ncc5c4)ncc32)cc1C#N` [compound 196, 5-[(7R)-2-[(7-fluoro-1H-indazol-5-yl)amino]-7-methyl-6-oxo-8-(tetrahydro-2H-pyran-4-yl)-7,8-dihydropteridin-5(6H)-yl]-2-(propan-2-yloxy)benzonitrile]: the concentration for half-maximal inhibition (IC50) is at most 100 nM.

As to `CC1C(=O)N(c2ccccc2)c2cnc(Nc3ccc4c(c3)CC(=O)N4)nc2N1c1ccccc1` (stereo not drawn) [compound 179], the IC50 lay in the range of 100 to 1000 nM.

As to `C[C@@H]1C(=O)N(c2ccc(N3CCN(C)CC3)nc2)c2cnc(Nc3cc(F)c4[nH]ncc4c3)nc2N1C1CCOCC1` [compound 193, (7R)-2-[(7-fluoro-1H-indazol-5-yl)amino]-7-methyl-5-[6-(4-methylpiperazin-1-yl)pyridin-3-yl]-8-(tetrahydro-2H-pyran-4-yl)-7,8-dihydropteridin-6(5H)-one], the 50% inhibitory concentration (IC50) was at most 100 nM.

On to `COc1ccc(N2C(=O)[C@@H](C)N(CCC(C)C)c3nc(Nc4cc(F)c5[nH]c(=O)oc5c4)ncc32)cc1OC` [Example 88, (7R)-5-(3,4-dimethoxyphenyl)-2-[(4-fluoro-2-oxo-2,3-dihydro-1,3-benzoxazol-6-yl)amino]-7-methyl-8-(3-methylbutyl)-7,8-dihydropteridin-6(5H)-one], for which the IC50 is at most 100 nM.

Regarding `COc1ccc(N2C(=O)[C@@H](C)N([C@H]3CC[C@H](C)CC3)c3nc(Nc4cc(F)c5[nH]ncc5c4)ncc32)cc1OC` [compound 239, (7R)-5-(3,4-dimethoxyphenyl)-2-[(7-fluoro-1H-indazol-5-yl)amino]-7-methyl-8-(trans-4-methylcyclohexyl)-7,8-dihydropteridin-6(5H)-one], the IC50 was at most 100 nM.

Take `[2H]C1([2H])C(N2c3nc(Nc4cc(F)c5[nH]ncc5c4)ncc3N(c3ccc(OC)c(OC)c3)C(=O)[C@H]2C)C([2H])([2H])C([2H])([2H])C([2H])([2H])C1([2H])[2H]` [compound 300, (7R)-8-[(2,2,3,3,4,4,5,5,6,6-2H10)cyclohexyl]-5-(3,4-dimethoxyphenyl)-2-[(7-fluoro-1H-indazol-5-yl)amino]-7-methyl-7,8-dihydropteridin-6(5H)-one]: the IC50 is at most 100 nM.

With `CSc1ccc(N2C(=O)[C@@H](C)N(C3CCCCC3)c3nc(Nc4ccc5[nH]ncc5c4)ncc32)cn1` [compound 98, (7R)-8-cyclohexyl-2-(1H-indazol-5-ylamino)-7-methyl-5-[6-(methylsulfanyl)pyridin-3-yl]-7,8-dihydropteridin-6(5H)-one], the half-maximal inhibitory concentration (IC50) is at most 100 nM.

For the compound `COc1ccc(N2C(=O)[C@@H](C)N([C@H]3CC[C@H](OC)CC3)c3nc(Nc4cc(F)c5[nH]ncc5c4)ncc32)cc1OC` [compound 225, (7R)-5-(3,4-dimethoxyphenyl)-2-[(7-fluoro-1H-indazol-5-yl)amino]-8-(trans-4-methoxycyclohexyl)-7-methyl-7,8-dihydropteridin-6(5H)-one], the IC50 is at most 100 nM.

For `CC(C)CCN1c2nc(N[C@H]3CC[C@H](O)CC3)ncc2N(c2ccccc2)C(=O)C1C` (relative stereo) [Example 11, 2-[(trans-4-hydroxycyclohexyl)amino]-7-methyl-8-(3-methylbutyl)-5-phenyl-7,8-dihydropteridin-6(5H)-one], the IC50 is over 1000 nM.

Consider `O=c1c(=O)n(C2CCCC2)c2nc(Nc3ccc4[nH]ncc4c3)ncc2n1-c1ccccc1` [Example 307, 8-cyclopentyl-2-(1H-indazol-5-ylamino)-5-phenyl-5,8-dihydropteridine-6,7-dione], for which the IC50 lay in the range of 100 to 1000 nM.

`C[C@@H]1C(=O)N(c2ccc(N3CCN(C)CC3)nc2)c2cnc(Nc3cc(F)c4[nH]ncc4c3)nc2N1C1CCCCC1` [compound 139, (7R)-8-cyclohexyl-2-[(7-fluoro-1H-indazol-5-yl)amino]-7-methyl-5-[6-(4-methylpiperazin-1-yl)pyridin-3-yl]-7,8-dihydropteridin-6(5H)-one]: the IC50 is at most 100 nM.

Take `CC[C@@H]1C(=O)N(c2cccc(C#N)c2)c2cnc(Nc3cc(F)c4[nH]ncc4c3)nc2N1C1CCCC1` [Example 217, 3-[(7R)-8-cyclopentyl-7-ethyl-2-[(7-fluoro-1H-indazol-5-yl)amino]-6-oxo-7,8-dihydropteridin-5(6H)-yl]benzonitrile]: the IC50 is at most 100 nM.

Take `C[C@@H]1C(=O)N(c2ccc(N3CCCC3)nc2)c2cnc(Nc3cc(F)c4[nH]ncc4c3)nc2N1C1CCCCC1` [compound 141, (7R)-8-cyclohexyl-2-[(7-fluoro-1H-indazol-5-yl)amino]-7-methyl-5-[6-(pyrrolidin-1-yl)pyridin-3-yl]-7,8-dihydropteridin-6(5H)-one]: the 50% inhibitory concentration (IC50) is at most 100 nM.

For the compound `Cc1cccc(N2C(=O)[C@@H](C)N(C3CCCCC3)c3nc(Nc4ccc5[nH]ncc5c4)ncc32)c1` [Example 30, (7R)-8-cyclohexyl-2-(1H-indazol-5-ylamino)-7-methyl-5-(3-methylphenyl)-7,8-dihydropteridin-6(5H)-one], the half-maximal inhibitory concentration (IC50) was at most 100 nM.

In the case of `C[C@@H]1C(=O)N(c2cccnc2)c2cnc(Nc3cc(F)c4[nH]ncc4c3)nc2N1[C@H]1CC[C@@H](C)CC1` [compound 240, (7R)-2-[(7-fluoro-1H-indazol-5-yl)amino]-7-methyl-8-(cis-4-methylcyclohexyl)-5-(pyridin-3-yl)-7,8-dihydropteridin-6(5H)-one], the IC50 was at most 100 nM.

For `[2H]C1([2H])C(N2c3nc(Nc4cc(F)c5[nH]ncc5c4)ncc3N(c3cccnc3)C(=O)[C@H]2C)C([2H])([2H])C([2H])([2H])C([2H])([2H])C1([2H])[2H]` [compound 301, (7R)-8-[(2,2,3,3,4,4,5,5,6,6-2H10)cyclohexyl]-2-[(7-fluoro-1H-indazol-5-yl)amino]-7-methyl-5-(pyridin-3-yl)-7,8-dihydropteridin-6(5H)-one], the IC50 is at most 100 nM.

For `COc1ccc(N2C(=O)[C@@H](C)N([C@H]3CC[C@H](C)CC3)c3nc(Nc4cnc5[nH]ncc5c4)ncc32)cc1C#N` [compound 245, 2-Methoxy-5-[(7R)-7-methyl-8-(trans-4-methylcyclohexyl)-6-oxo-2-(1H-pyrazolo[3,4-b]pyridin-5-ylamino)-7,8-dihydropteridin-5(6H)-yl]benzonitrile], the half-maximal inhibitory concentration (IC50) was at most 100 nM.

The term IC50 denotes the concentration that inhibits the measured activity by half.
